Experimental data: US12351574B2, “Selective ligands for modulation of GIRK channels” (Northeastern University, priority 2018, dated 2025)

Key:
GIRK1/2(V-T) = biological target: T1, GIRK1/2(V-T) (UniProt P48542+P48549, V99T); assay: TEVC in Xenopus oocytes, single mutant GIRK1/2(V-T); assay type: cell-based, human GIRK1, mouse GIRK2; details: GIRK1/2(V-T) single mutant
T1 construct: expressed in transfected cells; host or cells: Xenopus laevis oocytes (cRNA injection)
T1 sequence (P48549 1-501): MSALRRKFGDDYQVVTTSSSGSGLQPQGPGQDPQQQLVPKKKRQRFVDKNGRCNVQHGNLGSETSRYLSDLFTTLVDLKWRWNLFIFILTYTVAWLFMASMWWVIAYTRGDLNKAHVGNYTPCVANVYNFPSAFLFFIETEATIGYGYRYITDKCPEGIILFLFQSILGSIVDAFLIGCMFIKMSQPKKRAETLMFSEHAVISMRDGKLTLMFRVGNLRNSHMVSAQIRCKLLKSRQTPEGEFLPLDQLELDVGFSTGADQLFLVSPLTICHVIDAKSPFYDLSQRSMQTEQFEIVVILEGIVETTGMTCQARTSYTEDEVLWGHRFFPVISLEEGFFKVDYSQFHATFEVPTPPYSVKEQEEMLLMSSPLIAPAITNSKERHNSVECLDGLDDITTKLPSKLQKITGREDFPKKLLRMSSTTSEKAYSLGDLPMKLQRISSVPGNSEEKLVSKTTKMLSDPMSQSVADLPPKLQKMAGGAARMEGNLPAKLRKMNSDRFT
T1 sequence (P48542 1-425 V99T): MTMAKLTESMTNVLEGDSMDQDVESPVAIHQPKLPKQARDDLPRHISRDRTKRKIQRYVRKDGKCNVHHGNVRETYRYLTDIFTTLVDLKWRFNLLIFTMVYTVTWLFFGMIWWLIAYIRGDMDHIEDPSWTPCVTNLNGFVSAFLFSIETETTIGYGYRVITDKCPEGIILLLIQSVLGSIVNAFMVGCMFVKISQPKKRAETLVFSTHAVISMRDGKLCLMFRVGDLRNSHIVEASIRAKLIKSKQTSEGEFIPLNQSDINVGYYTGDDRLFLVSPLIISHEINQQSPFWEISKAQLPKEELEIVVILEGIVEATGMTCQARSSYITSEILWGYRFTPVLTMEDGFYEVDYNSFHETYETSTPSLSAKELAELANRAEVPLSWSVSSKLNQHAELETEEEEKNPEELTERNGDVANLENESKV
Description: (§1) Molecular biology: For Xenopus oocyte expression, human GIRK1 and human GIRK4 cDNAs were subcloned into pGEMHE. For mammalian expression, human GIRK1 and human GIRK4 cDNAs were subcloned into pcDNA3 and pcDNA3.1/V5-His B, respectively (Invitrogen). Mouse GIRK2 cDNA was subcloned in the dual-function vector, pXoom. Point mutations were introduced using a standard Pfu-based mutagenesis technique according to the QuikChange protocol (Agilent). Mutations were verified by sequencing.
(§2) Electrophysiology of oocytes: Whole-oocyte currents were measured by conventional two-electrode voltage clamp (TEVC) with a GeneClamp 500 amplifier (Axon Instruments). Agarose cushion microelectrodes were filled with 1.5% (w/v) agarose in 3 M KCl and were used with resistances between 0.1 and 1.5 megaohms. […] Barium-sensitive basal currents from both groups, 1) Vehicle, 2) single concentration at 10 μM and 3) multiple concentrations of ML297 or GAT compounds in the presence of HK solution, were assessed at −80 mV using TEVC. Barium-sensitive currents were normalized to average basal current in the vehicle solutions. The HK solution contained the following: 96 mM KCl, 1 mM NaCl, 1 mM MgCl2, 5 mM KOH/HEPES, pH 7.4. The barium solution consisted of HK+10 mM BaCl2. Five to ten oocytes from the same batch (same frog) were recorded for each group, and the experiments were repeated in at least four batches. Data acquisition and analysis were carried out using pClamp9 (Molecular Devices) and OriginPro (Microcal) software.
(§3) To test these computational predictions, the inventors mutated each or both of the two M1 key wild-type GIRK4 subunit residues to the corresponding GIRK2 residues (GIRK4-V92I, GIRK4-T94V, GIRK4-V92I/T94V or GIRK4-dm) and vice-versa the GIRK2 residues to the corresponding GIRK4 ones (GIRK2-I97V, GIRK2-V99T, GIRK2-I97V/V99T or GIRK2-dm) (FIG. 35). […]

GIRK1/4(VT-IV) = biological target: T2, GIRK1/4(VT-IV) (Homo sapiens, UniProt P48544+P48549, T94V/V92I); assay: TEVC in Xenopus oocytes, double mutant GIRK1/4(VT-IV); assay type: cell-based; details: GIRK1/4(VT-IV) double mutant
T2 construct: expressed in transfected cells; host or cells: Xenopus laevis oocytes (cRNA injection)
T2 sequence (P48549 1-501): T1 sequence (P48549 1-501)
T2 sequence (P48544 1-419 V92I/T94V): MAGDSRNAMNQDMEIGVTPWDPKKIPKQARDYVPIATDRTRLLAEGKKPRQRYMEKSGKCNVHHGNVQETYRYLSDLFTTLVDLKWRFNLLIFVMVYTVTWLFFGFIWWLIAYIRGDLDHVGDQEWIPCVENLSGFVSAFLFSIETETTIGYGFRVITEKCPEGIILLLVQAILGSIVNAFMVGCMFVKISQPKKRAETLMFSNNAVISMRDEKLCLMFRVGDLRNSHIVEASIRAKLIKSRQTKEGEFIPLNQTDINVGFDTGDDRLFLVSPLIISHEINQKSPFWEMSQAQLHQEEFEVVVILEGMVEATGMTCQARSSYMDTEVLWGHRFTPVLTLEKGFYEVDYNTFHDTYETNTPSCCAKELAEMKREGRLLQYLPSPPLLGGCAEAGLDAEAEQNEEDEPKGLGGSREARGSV
Description: as §1, §2, §3

[1] = biological target: human ERG (hERG) channels (Homo sapiens, UniProt Q12809); design: expressed in transfected cells; host or cells: Xenopus oocytes; details: published; cited from earlier work
[2] = read-out: EMAX, % of the control GIRK1/2

Sequence of human ERG (hERG) channels (Q12809 whole entry): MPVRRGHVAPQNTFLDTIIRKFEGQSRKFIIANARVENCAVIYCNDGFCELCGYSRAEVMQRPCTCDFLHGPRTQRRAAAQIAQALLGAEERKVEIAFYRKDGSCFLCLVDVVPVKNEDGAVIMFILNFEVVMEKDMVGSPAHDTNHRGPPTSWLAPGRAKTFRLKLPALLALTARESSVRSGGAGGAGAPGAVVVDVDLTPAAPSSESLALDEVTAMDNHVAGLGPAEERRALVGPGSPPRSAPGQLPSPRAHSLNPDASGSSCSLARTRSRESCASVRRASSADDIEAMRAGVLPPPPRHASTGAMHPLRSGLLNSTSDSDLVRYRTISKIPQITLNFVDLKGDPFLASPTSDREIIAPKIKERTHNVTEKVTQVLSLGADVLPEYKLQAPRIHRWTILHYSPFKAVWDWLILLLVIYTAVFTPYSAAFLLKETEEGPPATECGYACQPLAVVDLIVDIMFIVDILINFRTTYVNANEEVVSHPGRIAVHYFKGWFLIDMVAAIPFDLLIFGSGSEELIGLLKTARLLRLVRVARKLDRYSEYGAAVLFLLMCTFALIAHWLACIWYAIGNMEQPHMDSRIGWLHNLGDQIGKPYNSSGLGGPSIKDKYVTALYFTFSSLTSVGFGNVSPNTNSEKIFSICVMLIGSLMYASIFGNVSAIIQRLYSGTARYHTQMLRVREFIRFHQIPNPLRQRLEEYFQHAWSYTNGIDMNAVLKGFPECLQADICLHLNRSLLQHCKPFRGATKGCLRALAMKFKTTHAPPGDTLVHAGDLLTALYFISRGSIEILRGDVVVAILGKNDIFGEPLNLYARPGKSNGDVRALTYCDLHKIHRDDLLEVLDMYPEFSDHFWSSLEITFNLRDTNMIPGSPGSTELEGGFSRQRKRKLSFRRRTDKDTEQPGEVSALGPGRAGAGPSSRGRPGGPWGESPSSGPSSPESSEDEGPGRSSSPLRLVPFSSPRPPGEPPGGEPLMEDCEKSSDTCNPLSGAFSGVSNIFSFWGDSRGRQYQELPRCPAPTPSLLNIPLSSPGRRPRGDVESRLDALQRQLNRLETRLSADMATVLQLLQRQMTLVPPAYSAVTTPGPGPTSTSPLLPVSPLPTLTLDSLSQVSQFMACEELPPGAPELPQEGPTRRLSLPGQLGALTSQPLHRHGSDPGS

Compound | EC50 (GIRK1/2(V-T)) [µM] | EMAX (GIRK1/2(V-T)) | Emax (GIRK1/2(V-T); [2]) [%] | EC50 (GIRK1/4(VT-IV)) [µM] | EMAX (GIRK1/4(VT-IV)) | Emax (GIRK1/4(VT-IV); [2]) [%] | IC50 [1] [µM]
Cc1cc(NC(=O)Nc2ccc(Br)s2)n(-c2ccccc2)n1 [GAT1508, 1-(5-bromothiophen-2-yl)-3-(3-methyl-1-phenyl-1H-pyrazol-5-yl)urea] | 0.53 ± 0.07 | 1.92±0.03 | 65 | 0.55 ± 0.11 | 1.76±0.03 | 75 | –
Cc1cc(NC(=O)Nc2ccc(F)c(F)c2)n(-c2ccccc2)n1 [ML297, reference compound] | – | – | – | – | – | – | ~10
